Experimental data taken from ChEMBL document CHEMBL5346899, “PKM2/PDK1 dual-targeted shikonin derivatives restore the sensitivity of EGFR-mutated NSCLC cells to gefitinib by remodeling glucose metabolism” (Eur J Med Chem, 2023).
The source made the active and inactive calls. The calls are words filed in the database; no cut-off is given here.

Columns and labels:
[1] = test system: A549; assay: cells; format: functional, cell-based; details: Homo sapiens, A549, 24 h
Description: Antiproliferative activity against human A549 cells assessed as inhibition of cell growth incubated for 24 hrs by CCK-8 assay

[2] = test system: NCI-H1299; assay: Induction of apoptosis in human NCI-H1299 cells assessed as early apoptotic cells at 1 micromol/L incubated for 24 hrs by Annexin V-FITC/PI staining based analysis (reference value: 2.43%); format: functional; details: dose 1 µmol/L, at 1 µM
[3] = test system: NCI-H1299; assay: Induction of apoptosis in human NCI-H1299 cells assessed as early apoptotic cells at 2 micromol/L incubated for 24 hrs by Annexin V-FITC/PI staining based analysis (reference value: 2.43%); format: functional; details: dose 2 µmol/L, at 2 µM
[4] = test system: A549; assay: Induction of apoptosis in human A549 cells assessed as early apoptotic cells at 1 micromol/L incubated for 24 hrs by Annexin V-FITC/PI staining based analysis (reference value: […]%); format: functional; details: dose 1 µmol/L
[5] = test system: HCC827; assay: Induction of apoptosis in human HCC827 cells assessed as early apoptotic cells at 1 micromol/L incubated for 24 hrs by Annexin V-FITC/PI staining based analysis (reference value: 9.14%); format: functional; details: dose 1 µmol/L, at 1 µM
[6] = test system: HCC827; assay: Induction of apoptosis in human HCC827 cells assessed as late apoptotic cells at 1 micromol/L incubated for 24 hrs by Annexin V-FITC/PI staining based analysis (reference value: 8.42%); format: functional; details: dose 1 µmol/L, at 1 µM
[7] = test system: NCI-H1975; assay: Induction of apoptosis in human NCI-H1975 cells assessed as regulation of PARP expression by Western blot analysis; format: functional, cell-based
[8] = test system: NCI-H1975; assay: Induction of apoptosis in human NCI-H1975 cells assessed as regulation of Caspase-9 expression by Western blot analysis; format: functional, cell-based
[9] = test system: NCI-H1975; assay: Induction of apoptosis in human NCI-H1975 cells assessed as regulation of Caspase-3 expression by Western blot analysis; format: functional, cell-based
[10] = test system: NCI-H1975; assay: Induction of apoptosis in human NCI-H1975 cells assessed as regulation of cytochrome c expression by Western blot analysis; format: functional, cell-based
[11] = test system: NCI-H1975; assay: Induction of apoptosis in human NCI-H1975 cells assessed as regulation of Smac expression by Western blot analysis; format: functional, cell-based
[12] = test system: NCI-H1975; assay: Induction of mitochondrial transmembrane potential dissipation in human NCI-H1975 cells assessed as cells with high mitochondrial transmembrane potential at 0.5 micromol/L by FL-1/FL-2 channel based fluorescence analysis (reference value: 97.4%); format: functional; details: dose 0.5 µmol/L; at 0.5 µM
[13] = test system: A549; assay: Induction of intracellular ROS accumulation in human A549 cells; format: functional, cell-based
[14] = test system: NCI-H1975; assay: Induction of intracellular ROS accumulation in human NCI-H1975 cells; format: functional, cell-based
[15] = test system: HCC827; assay: Induction of intracellular ROS accumulation in human HCC827 cells; format: functional, cell-based
[16] = target: T1, Pyruvate kinase PKM (Homo sapiens, UniProt P14618); assay: Activation of PKM2 in siRNA mediated PKM2 knockdown human NCI-H1975 cells at 1 to 2 micromol/L by Western blot analysis; format: cell-based; details: dose 1-2 µmol/L
[17] = target: T1, Pyruvate kinase PKM; assay: Activation of PKM2 in siRNA mediated PKM2 knockdown human HCC827 cells at 1 to 2 micromol/L by Western blot analysis; format: cell-based; details: dose 1-2 µmol/L
[18] = test system: HCC827; assay: Antiproliferative activity against siRNA mediated PKM2 knockdown human HCC827 cells assessed as inhibition of cell growth incubated for 24 hrs by CCK-8 assay; format: functional, cell-based; details: HCC827, 24 h
[19] = target: T1, Pyruvate kinase PKM; assay: Inhibition of PKM2 (unknown origin) nuclear translocation
[20] = test system: NCI-H1975; assay: Effect on PKM2 protein expression in human NCI-H1975 cells at 1 to 2 micromol/L by Western blot analysis; format: functional, cell-based; details: dose 1-2 µmol/L
[21] = target: [Pyruvate dehydrogenase (acetyl-transferring)] kinase isozyme 1, mitochondrial (Homo sapiens, UniProt Q15118); assay: Inhibition of PDK1 in human NCI-H1975 cells at 1 to 2 micromol/L by Western blot analysis; format: cell-based; details: dose 1-2 µmol/L
[22] = test system: NCI-H1975; assay: Upregulation of PDH protein expression in human NCI-H1975 cells at 1 to 2 micromol/L by Western blot analysis; format: functional, cell-based; details: dose 1-2 µmol/L
[23] = test system: NCI-H1975; assay: Antiproliferative activity against siRNA mediated […] knockdown human NCI-H1975 cells assessed as inhibition of cell growth incubated for 24 hrs by CCK-8 assay; format: functional, cell-based; details: NCI-H1975, 24 h
[24] = test system: NCI-H1975; assay: Induction of apoptosis in human NCI-H1975 cells transfected with siRNA assessed as early apoptotic cells at 1 micromol/L incubated for 24 hrs by Annexin V-FITC/PI staining based analysis (reference value: 1.16%); format: functional; details: dose 1 µmol/L, at 1 µM
[25] = test system: NCI-H1975; assay: Induction of apoptosis in human NCI-H1975 cells with siRNA mediated […] knockdown assessed as early apoptotic cells at 2 micromol/L incubated for 24 hrs by Annexin V-FITC/PI staining based analysis (reference value: 2.54%); format: functional; details: dose 2 µmol/L, at 2 µM
[26] = test system: NCI-H1975; assay: Induction of apoptosis in human NCI-H1975 cells with siRNA mediated […] knockdown assessed as late apoptotic cells at 1 micromol/L incubated for 24 hrs by Annexin V-FITC/PI staining based analysis (reference value: 6.25%); format: functional; details: dose 1 µmol/L, at 1 µM
[27] = test system: NCI-H1975; assay: Antiproliferative activity against human NCI-H1975 cells transfected with siRNA assessed as inhibition of cell growth incubated for 24 hrs by CCK-8 assay; format: functional, cell-based; details: NCI-H1975, 24 h
[28] = test system: NCI-H1975; assay: Inhibition of glycolysis in human NCI-H1975 cells assessed as reduction in glucose consumption incubated for 24 hrs by colorimetric assay; format: functional, cell-based
[29] = test system: NCI-H1975; assay: Inhibition of glycolysis in human NCI-H1975 cells assessed as reduction in lactate production incubated for 1 hrs by colorimetric assay; format: functional, cell-based
[30] = test system: NCI-H1975; assay: Antitumor activity against human NCI-H1975 cells xenografted in athymic nu/nu mouse assessed as reduction in tumor size at 2.4 to 4.8 mg/kg, ip administered every 2 days for 11 days by vernier caliper method; format: functional, organism-based; details: dose 2.4-4.8 mg/kg, time 11.0 day
[31] = Toxicity in athymic nu/nu mouse xenografted with human NCI-H1975 cells assessed as reduction in body weight at 2.4 to 4.8 mg/kg, ip administered every 2 days for 11 days; format: organism-based; details: in vivo, 264 h, dose 2.4-4.8 mg/kg, time 11 day
[32] = Acute toxicity in ICR mouse assessed as reduction in animal survival rate at 2.4 to 38.4 mg/kg, ip administered once for 14 days and measured every day; format: organism-based; details: in vivo, 336 h, dose 2.4-38.4 mg/kg, time 14 day
[33] = test system: NCI-H1975; assay: Induction of apoptosis in human NCI-H1975 cells assessed as late apoptotic cells at 10 micromol/L incubated for 24 hrs by Annexin V-FITC/PI staining based analysis (reference value: 8.61%); format: functional; details: dose 10 µmol/L, at 10 µM
[34] = test system: NCI-H1975; assay: Induction of apoptosis in human NCI-H1975 cells assessed as live cells at 0.5 micromol/L incubated for 24 hrs in presence of gefitinib by Annexin V-FITC/PI staining based analysis (reference value: 88.7%); format: functional; details: dose 0.5 µmol/L, at 0.5 µM
[35] = test system: NCI-H1975; assay: Induction of apoptosis in human NCI-H1975 cells assessed as early apoptotic cells at 0.5 micromol/L incubated for 24 hrs in presence of gefitinib by Annexin V-FITC/PI staining based analysis (reference value: 2.55%); format: functional; details: dose 0.5 µmol/L, at 0.5 µM

T1 sequence (P14618 2-531 limits assumed): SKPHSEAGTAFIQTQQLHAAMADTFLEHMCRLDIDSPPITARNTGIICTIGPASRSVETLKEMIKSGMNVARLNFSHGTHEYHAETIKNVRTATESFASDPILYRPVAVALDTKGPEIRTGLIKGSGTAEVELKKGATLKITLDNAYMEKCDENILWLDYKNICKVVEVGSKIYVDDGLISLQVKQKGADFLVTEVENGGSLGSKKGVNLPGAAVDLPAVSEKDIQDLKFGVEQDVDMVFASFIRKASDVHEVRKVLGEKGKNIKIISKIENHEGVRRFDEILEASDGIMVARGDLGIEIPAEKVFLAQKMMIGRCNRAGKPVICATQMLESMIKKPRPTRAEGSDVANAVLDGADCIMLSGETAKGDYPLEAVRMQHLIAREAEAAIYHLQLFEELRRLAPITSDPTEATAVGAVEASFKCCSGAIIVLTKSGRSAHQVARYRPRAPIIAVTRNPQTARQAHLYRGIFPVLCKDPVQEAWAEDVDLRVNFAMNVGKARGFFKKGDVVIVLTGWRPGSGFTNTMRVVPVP

COC(=O)[C@H](CS[C@H](CC=C(C)C)C1=CC(=O)c2c(O)ccc(O)c2C1=O)NC(=O)CCCC[C@@H]1CCSC(c2ccccc2C)S1 (stereo not given in full)
IC50 [1]: 6.26 µM | Activity [2]: 4.68% | Activity [3]: 2.68% | Activity [4]: 8.74% | Activity [5]: 16.5% | Activity [6]: 12.1% | Activity [7]: Active | Activity [8]: Active | Activity [9]: Active | Activity [10]: Active | Activity [11]: Active | Activity [12]: 88.1% | Activity [13]: Active | Activity [14]: Active | Activity [15]: Active | Activity [16]: inactive | Activity [17]: inactive | IC50 [18]: 13 µM | inhibition [19]: Active | Activity [20]: inactive | inhibition [21]: Active | Activity [22]: Active | IC50 [23]: 9 µM | Activity [24]: 3.44% | Activity [25]: 2.67% | Activity [26]: 4.95% | IC50 [27]: 3.5 µM | inhibition [28]: Active | inhibition [29]: Active | Activity [30]: Active | Activity [31]: Non-Toxic | Activity [32]: Non-Toxic | Activity [33]: 9.56% | Activity [34]: 57.5% | Activity [35]: 17.6%
